Laboratory results published in patent publication US4766131A, “2-amino (or hydroxy) phenethyl-1,2,3,4-tetrahydroisoquinolines as analgesics” (Pennwalt Corporation, priority 1986, dated 1988).
Counter-ions that a name gives are not always drawn.

How the values were obtained:
[1] = literature, Medicinal Chemistry, Vol. 5; cited from earlier work
rats [2] = assay: tail flick test in rats; format: in vivo; conditions: po, 1 h; rat, p.o., 60 minute post dose interval; read-out: ED50 (95% C.L.), Rat Tail Flick
Procedure: (§1) Two compounds, N-(4-aminophenethyl)-1,2,3,4-tetrahydro-6,7-dimethoxy-1-methylisoquinoline(Compound No. 1) and its N-methyl derivative (Compound No. 2) were tested for analgesic activity in rats and mice by the oral and subcutaneous routes. In addition, gross behavioral and toxicological effects (as well as general pharmacological profiling) were evaluated in mice by the intraperitoneal route of administration.
In rats, two procedures designed to detect anlgesic acitivity were used: the hot plate test and the tail flick test. In the hot plate test, rats were placed on the surface of a copper plate maintained at 54.5°±1.0° C. and their response latency (again consisting of paw licking or jumping behavior) determined at 60 minutes and again at 30 minutes before drug injection. These response times were again determined 30 and 60 minutes after drug injection and animals whose response latencies were equal to or greater than three seconds over the second pre-treatment trial (i.e., the one done 30 minutes before dosing) were considered protected from the pain. In the tail flick procedure, a high intensity light beam was focused on the blackened portion of the rat's tail and the reaction time, i.e., latency to move its tail, was measured before and 15, 30, 45, 60, 90 and 120 minutes after drug administration. […]

rats [3] = assay: hot plate test in rats; format: in vivo; conditions: 1 h, rat, 60 minute post dose interval, 54.5°±1.0° C., read-out: ED50 (95% C.L.), Rat Hot Plate
Procedure: as §1
In rats, two procedures designed to detect anlgesic acitivity were used: the hot plate test and the tail flick test. In the hot plate test, rats were placed on the surface of a copper plate maintained at 54.5°±1.0° C. and their response latency (again consisting of paw licking or jumping behavior) determined at 60 minutes and again at 30 minutes before drug injection. These response times were again determined 30 and 60 minutes after drug injection and animals whose response latencies were equal to or greater than three seconds over the second pre-treatment trial (i.e., the one done 30 minutes before dosing) were considered protected from the pain. In the tail flick procedure, a high intensity light beam was focused on the blackened portion of the rat's tail and the reaction time, i.e., latency to move its tail, was measured before and 15, 30, 45, 60, 90 and 120 minutes after drug administration. A subject was considered protected from the pain stimulus when Po ≥Pr +Pr 2 where Po is the individual post treatment value and Pr, the pretreatment value. The ED50's reported below for both of these procedures were calculated from values obtained at the 60 minute post dose interval.

mice [4] = assay: hot plate test in mice; format: in vivo; conditions: po, 0.5 h; mouse, p.o., 30 minutes before testing, 54.5°±1.0° C.; read-out: ED50 (95% C.L.), Mouse Hot Plate
Procedure: as §1
(§2) In mice, two test procedures designed to detect analgesic activity were used: the phenyl-benzoquinone (PBQ) writhing test and the hot plate test. In the PBQ procedure, the drugs were injected 15 minutes before an intraperitoneal injection of PBQ was made for the subcutaneous studies and 30 minutes before the PBQ for the oral studies. […] In the hot plate test, subjects were placed on the surface of a hot copper plate maintained at 54.5°±1.0° C. For the oral studies drugs were injected 30 minutes before testing on the hot plate. Drugged animals whose reaction time (consisting of paw licking or jumping behavior) was equal to or greater than 2 seconds over the average of an untreated control group of mice were considered to be protected from the pain.

mice [5] = assay: phenyl-benzoquinone (PBQ) writhing test; format: in vivo, mouse
Procedure: as §1
as §2, with “In the PBQ procedure, the drugs were injected 15 minutes before an intraperitoneal injection of PBQ was made for the subcutaneous studies and 30 minutes before the PBQ for the oral studies.” left out

[6] = po, 0.5 h, mouse, p.o., drug 30 minutes before PBQ, read-out: ED50 (95% C.L.), Mouse PBQ
[7] = sc, 0.25 h, mouse PBQ assay, s.c., 15 min post dose, table 6, read-out: Analgesic activity, s.c. ED50 at 15 min post dose
[8] = sc, 0.25 h, mouse, s.c., drug 15 minutes before PBQ, table 5, read-out: ED50 (95% C.L.), Mouse PBQ
[9] = sc, 0.75 h, mouse PBQ assay, s.c., 45 min post dose, table 6, read-out: Analgesic activity, s.c. ED50 at 45 min post dose

COc1cc2c(cc1OC)C(C)N(CCc1ccc(Cl)cc1)CC2 (stereo not drawn)
analgesic properties / activity reported by Brossi et al [1]: reported not to exhibit analgesic properties

COc1cc2c(cc1OC)C(C)N(CCc1ccc(N)cc1)CC2 (stereo not drawn) [Example 1, N-(4-aminophenethyl)-1,2,3,4-tetrahydro-6,7-dimethoxy-1-methylisoquinoline]
ED50 (rats [2]): ~31.6 mg/kg | ED50 (rats [3]; po, p.o.): 30 to 60 mg/kg | ED50 (rats [3]; sc, s.c.): 35.7 mg/kg | ED50 (mice [4]): 25.7 mg/kg | ED50 (mice [5]; [6]): 48.5 mg/kg | ED50 (mice [5]; [7]): 7 mg/kg | ED50 (mice [5]; [8]): 3.7 mg/kg | ED50 (mice [5]; [9]): 24.2 mg/kg

CNc1ccc(CCN2CCc3cc(OC)c(OC)cc3C2C)cc1.Cl (stereo not drawn) [Example 2, N-(4-Methylaminophenethyl)-1,2,3,4-tetrahydro-6,7-dimethoxy-1-methylisoquinoline hydrochloride]
ED50 (rats [2]): 30 to 60 mg/kg | ED50 (rats [3]; po, p.o.): ~17.8 mg/kg | ED50 (mice [4]): 31.7 mg/kg | ED50 (mice [5]; [6]): 42.8 mg/kg | ED50 (mice [5]; [8]): 5.2 mg/kg

COc1cc2c(cc1OC)C(C)N(CCc1cccc(N)c1)CC2.Cl.Cl (stereo not drawn) [Example 3, N-(3-Aminophenethyl)-1,2,3,4-tetrahydro-6,7-dimethoxy-1-methylisoquinoline dihydrochloride]
ED50 (mice [5]; [7]): 11.9 mg/kg | ED50 (mice [5]; [9]): 20.2 mg/kg

COc1cc2c(cc1OC)C(C)N(CCc1ccccc1N)CC2 (stereo not drawn) [Example 4, N-(2-Aminophenethyl-1,2,3,4-tetrahydro-6,7-dimethoxy-1-methylisoquinolinedihydrochloride]
ED50 (mice [5]; [7]): 10.7 mg/kg | ED50 (mice [5]; [9]): 34 mg/kg

COc1cc2c(cc1OC)C(C)N(CCc1ccc(N(C)C)cc1)CC2.Cl.Cl (stereo not drawn) [Example 5, N-(4-Dimethylaminophenethyl)-1,2,3,4-tetrahydro-6,7-dimethoxy-1-methylisoquinoline dihydrochloride]
ED50 (mice [5]; [7]): 27.3 mg/kg | ED50 (mice [5]; [9]): 26.7 mg/kg

COc1cc2c(cc1OC)C(C)N(CCc1ccc(NC(C)=O)cc1)CC2.Cl (stereo not drawn) [Example 6, N-(4-Acetamidophenethyl)-1,2,3,4-tetrahydro-6,7-dimethoxy-1-methylisoquinoline hydrochloride]
ED50 (mice [5]; [7]): 21 mg/kg | ED50 (mice [5]; [9]): 31.6 to 56.2 mg/kg

COc1cc2c(cc1OC)CN(CCc1ccc([N+](=O)[O-])cc1)CC2.Cl [Example 7, N-(4-Nitrophenethyl)-1,2,3,4-tetrahydro-6,7-dimethoxyisoquinoline hydrochloride]
ED50 (mice [5]; [7]): 9 mg/kg | ED50 (mice [5]; [9]): 34 mg/kg

COc1cc2c(cc1OC)CN(CCc1ccc(N)cc1)CC2.Cl.Cl [Example 8, N-(4-Aminophenethyl)-1,2,3,4-tetrahydro-6,7-dimethoxyisoquinoline dihydrochloride]
ED50 (mice [5]; [7]): 2.9 mg/kg | ED50 (mice [5]; [9]): 16.2 mg/kg

COc1ccc2c(c1)CCN(CCc1ccc([N+](=O)[O-])cc1)C2C.Cl.Cl (stereo not drawn) [Example 9, N-(4-Nitrophenethyl)-1,2,3,4-tetrahydro-6-methoxy-1-methylisoquinoline dihydrochloride]
ED50 (mice [5]; [7]): 10.4 mg/kg | ED50 (mice [5]; [9]): 16.4 mg/kg

COc1ccc2c(c1)CCN(CCc1ccc(N)cc1)C2C.Cl.Cl (stereo not drawn) [Example 10, N-(4-Aminophenethyl)-1,2,3,4-tetrahydro-6-methoxy-1-methyl-isoquinoline dihydrochloride]
ED50 (mice [5]; [7]): 6.5 mg/kg | ED50 (mice [5]; [9]): 11.8 mg/kg

COc1ccc2c(c1)CCN(CCc1ccc(NC=O)cc1)C2C (stereo not drawn) [Example 11 (N--Formyl), N-(4-Formamidophenethyl)-1,2,3,4-tetrahydro-6-methoxy-1-methylisoquinoline]
ED50 (mice [5]; [7]): 3.5 mg/kg | ED50 (mice [5]; [9]): 15.3 mg/kg

CNc1ccc(CCN2CCc3cc(OC)ccc3C2C)cc1.Cl (stereo not drawn) [Example 11, N-(4-Methylaminophenethyl)-1,2,3,4-tetrahydro-6-methoxy-1-methylisoquinoline hydrochloride]
ED50 (mice [5]; [7]): 6 mg/kg | ED50 (mice [5]; [9]): 13.8 mg/kg

COc1cc2c(cc1OC)C(C)N(CCc1ccc(O)cc1)CC2.Cl (stereo not drawn) [Example 12, N-(4-Hydroxyphenethyl)-1,2,3,4-tetrahydro-6,7-dimethoxy-1-methylisoquinoline hydrochloride]
ED50 (mice [5]; [7]): 5.8 mg/kg | ED50 (mice [5]; [9]): 10 to 31.6 mg/kg

COc1cc2c(cc1OC)CN(CCc1ccc(O)cc1)CC2.Cl [Example 13, N-(4-Hydroxyphenethyl)-1,2,3,4-tetrahydro-6,7-dimethoxyisoquinoline hydrochloride]
ED50 (mice [5]; [7]): 2.8 mg/kg | ED50 (mice [5]; [9]): 22.4 mg/kg

COc1cc2c(cc1O)CCN(CCc1ccc(N)cc1)C2C.Cl.Cl (stereo not drawn) [Example 14, N-(4-Aminophenethyl)-1,2,3,4-tetrahydro-6-hydroxy-7-methoxy-1-methylisoquinoline dihydrochloride]
ED50 (mice [5]; [7]): 7.3 mg/kg | ED50 (mice [5]; [9]): 25.8 mg/kg

CC1c2cc(O)c(O)cc2CCN1CCc1ccc(N)cc1 (stereo not drawn) [Example 15, N-(4-Aminophenethyl)-1,2,3,4-tetrahydro-6,7-dihydroxy-1-methylisoquinolinedihydrobromide]
ED50 (mice [5]; [7]): 25.4 mg/kg | ED50 (mice [5]; [9]): ~100 mg/kg
